These results are taken from patent publication EP4806449A1, “ANTIVIRAL FOOD PRODUCT” (Creaciones Aromáticas Industriales, S.A., priority 2023, dated 2025).

≈ marks a conversion by molar mass, not a printed value. Bounds are passed on as bounds.

Broadly, the EC50 is the concentration at which the effect is half-maximal. As usually defined, the CC50 is the concentration at which the toxic effect on the cells reaches its halfway point. Low values mean greater toxicity to the cells, high ones lower toxicity to the cells.

For data set [1], the system named is human coronavirus 229E. Particulars: positive control, dose range 0.06-264 µg/ml.
Procedure: In this study, the ability of the product object of the invention to inhibit the infectivity of human coronavirus 229E was determined. To that end, different concentrations of grape extract were incubated together with a defined concentration of the virus of interest for 30 minutes. Exposure of host cells to the virus causes the virus to replicate within the cells, which produces a cytopathic effect on the cells that is quantified by means of a cell viability assay after 5 days of exposure.
The MRC-5 cell line (lung-derived fibroblasts) from the American Type Culture Collection (ATCC) (CCL-171) was used. […]
A stock solution of the test substance was prepared in dimethyl sulfoxide (DMSO) at 100 mg/ml. […] Next, 0.25 ml of each dilution were mixed with 0.25 ml of a 229E inoculum diluted in 2% FBS EMEM medium, with the inoculum at an infectious concentration of 1000 TCID50/ml and the maximum concentration of the extract at 1 mg/ml (concentration range analysed in the medium: 7.81-1000 µg/ml). […]
To that end, a stock solution of the test substance was prepared in dimethyl sulfoxide (DMSO) at 50 mg/ml. […] Next, 0.25 ml of each dilution were mixed with 0.25 ml of a 229E inoculum diluted in 2% FBS EMEM medium, with the inoculum at an infectious concentration of 1000 TCID50/ml and the maximum concentration of the extract at 1 mg/ml (concentration range analysed in the medium: 0.78125 µg/ml - 100 µg/ml). […]
For data set [2], the system named is human coronavirus 229E. The data set can be described thus: microbe, parasite or virus in culture. The conditions noted are these: MRC5.
In another data set the test system is MRC-5 cells. The data set can be described thus: Toxicity controls without virus (MTT cell viability). In kind it is cell-based. Particulars: MRC-5 cells without 229E virus; 4.5h treatment; MTT after 5 days. The method, then: (§1) The MRC-5 cell line (lung-derived fibroblasts) from the American Type Culture Collection (ATCC) (CCL-171) was used. Cells were kept at 37°C and 5% CO2 in Eagle minimum essential medium (EMEM) supplemented with 10% foetal bovine serum (FBS) and antibiotics, trypsinising every 3-4 days, before reaching 90% confluence. Coronavirus 229E was obtained from the ATCC (VR-740) and amplified in MRC-5 cells, according to the ATCC protocol.
(§2) In both experiments, 5 days post-infection, differences in cell viability associated with the cytopathic effect of the virus or toxicity of the treatments were analysed by means of the MTT assay. The MTT assay is a colorimetric assay that measures the activity of enzymes that transform the MTT (methylthiazolyldiphenyl-tetrazolium bromide) molecule to formazan, purple in colour. Briefly, the medium was aspirated from the wells and 0.1 ml of 1 mg/ml MTT solution in EMEM was added to each well, and incubated at 37°C for 2 hours. Next, the MTT solution was aspirated, formazan crystals were dissolved in 0.1 ml of DMSO and absorbance was read at 570 nm (reference 660 nm). The mean absorbance values of the uninfected controls was considered to be 100% cell viability.
(§3) In order to evaluate the results, the following variables were calculated: • CC50: Half maximal cytotoxic concentration, which is the concentration of the compound of interest causing 50% toxicity. […]

Test in data set [3]: as above
It counts as cell-based. The conditions noted are these: human; MRC-5 cells without 229E virus; 4.5h treatment; MTT after 5 days. How it is done: as §1, §2, §3

Regarding `CCN(CC)CCCC(C)Nc1ccnc2cc(Cl)ccc12` (stereo not shown) [Chloroquine, chloroquine], in the data set on human coronavirus 229E [1], the “clear antiviral effect starting from” value was not below 16.5 µg/mL. This molecule also came in with an EC50 with human coronavirus 229E [2] of 5.96 µg/mL (≈ 18.6 µM). The CC50 with MRC-5 cells is more than 264 µg/mL. Also, in data set [3], the CC50 at 4.5 h was more than 264 µg/mL.
